Assay [1] deals with HN31 (head and neck cancer) cell line. The assay can be described thus: Cell growth inhibition experiment (SRB), HN31. The assay is classed as cell-based, human. As to conditions: Homo sapiens, 96 h, 96 hours incubation. As for the experimental part:
(§1) The cell lines below were used in order to confirm the efficacy of the compounds synthesized in Examples 1 to 60. Human PANC-1 (pancreatic cancer) and MDA-MB-231 (breast cancer) cell lines were obtained from the American Type Culture Collection (ATCC; Manassas, Va.); and HN31 (head and neck cancer) and UMRC2 (kidney cancer) cell lines were secured from the United States National Institutes of Health (Bethesda, Md.). The MDA-MB-231, UMRC2, HN31, and PANC-1 cell lines were cultured in Dulbecco modified Eagle medium (DMEM; Invitrogen, Carlsbad, Calif.) containing FBS (10%), HEPES (10 mM), penicillin (100 U/mL), and streptomycin (100 μg/mL). All cell lines were cultured in an incubator (37° C., 5% CO2).
(§2) The 4-(aryl)-N-(3-alkoxyfuro[2,3-b]pyrazin-2-yl)-piperazine-1-carboxamide derivative compounds synthesized according to Examples 1 to 60 of the present invention were treated with various human tissue-derived cancer cell lines cultured according to Experimental Example 1, and thus the inhibitory effect of the growth of human cancer cells was confirmed. The cell growth inhibition experiment was conducted using the sulforhodamine B (SRB) technique (Skehan et al., J. National Cancer Institute, 1990, 82: 1107-1112). Specifically, each cell line was seeded in a 96-well plate at a density of 2 to 3×10^3 cells/well, cultured overnight, and then treated with the 4-(aryl)-N-(3-alkoxyfuro[2,3-b]pyrazin-2-yl)-piperazine-1-carboxamide derivative compounds of the present invention. The experiment was repeated 3 times for each compound. Cells treated with each compound were additionally incubated for 96 hours, fixed with 10% trichloroacetic acid (TCA), and then left at 4° C. for 1 hour. The resultant was washed 3 times with distilled water. Thereafter, each cell was treated with 0.4% sulforhodamine B dissolved in 1% acetic acid, stained for 30 minutes, and then washed 4 times with 1% acetic acid. The resultant was dried in the air. After shaking the resultant in Tris solution (10 mM) for 5 minutes, the absorbance was measured at 530 nm using a Benchmark Plus Microplate reader (Bio-Rad Laboratories, Hercules, Calif.).
(§3) In order to convert the OD530 value to the number of viable cells per each well, the measured OD530 value was compared to the standard OD530-vs.-cell number curve of each cell line. The percent survival was calculated using the following formula: % survival=Nlive cells(test)/Nlive cells(control)×100

The subject of another assay is A549. The experiment in a line: Cell growth inhibition experiment (SRB), A549. The assay is classed as cell-based. As to conditions: Homo sapiens, A549, 96 h, 96 hours incubation, read-out: IC50 (μM) for cancer cell line A549. On the procedure:
as §2, §3

In another assay the test system is SK-OV-3. The experiment in a line: Cell growth inhibition experiment (SRB), SK-OV-3. The assay is classed as cell-based, human. As to conditions: Homo sapiens, SK-OV-3, 96 h, 96 hours incubation, read-out: IC50 (μM) for cancer cell line SK-OV-3. As for the experimental part:
as §2, §3

Assay [2] deals with MDA-MB-231 (breast cancer) cell line. The experiment in a line: Cell growth inhibition experiment (SRB), MDA-MB-231. As to conditions: Homo sapiens, MDA-MB-231, 96 h, 96 hours incubation. The assay is classed as cell-based, human. On the procedure:
as §1, §2, §3

Another assay deals with HEK293. The experiment in a line: Cell growth inhibition experiment (SRB), HEK293. The conditions noted are these: Homo sapiens, HEK293, 96 h, 96 hours incubation, read-out: IC50 (μM) for cancer cell line HEK293. The assay is classed as cell-based, human. On the procedure: as §2, §3
Assay [3] deals with UMRC2 (kidney cancer) cell line. The experiment in a line: Cell growth inhibition experiment (SRB), UMRC2. The assay is classed as cell-based, human. The conditions noted are these: Homo sapiens, UMRC2, 96 h, 96 hours incubation. On the procedure:
as §1, §2, §3

Assay [4] concerns PANC-1 (pancreatic cancer) cell line. The experiment in a line: Cell growth inhibition experiment (SRB), PANC-1. The conditions noted are these: Homo sapiens, PANC-1, 96 h, 96 hours incubation. The assay is classed as cell-based. On the procedure:
as §1, §2, §3

The next assay concerns HUVEC. The experiment in a line: Cell growth inhibition experiment (SRB), HUVEC. The class given is cell-based, human. As to conditions: Homo sapiens, HUVEC, 96 h, 96 hours incubation, read-out: IC50 (μM) […]. As for the experimental part: as §2, §3
The test system of a further assay is HT29. The experiment in a line: Cell growth inhibition experiment (SRB), HT29. The assay is classed as cell-based, human. The conditions noted are these: Homo sapiens, HT-29, 96 h, 96 hours incubation, read-out: IC50 (μM) for cancer cell line HT29. As for the experimental part: as §2, §3

Structures are written as SMILES.

Take `COc1cc(F)cc(N2CCN(C(=O)Nc3nc4cc(C)oc4nc3OC)CC2)c1` [Example 23, 4-(3-Fluoro-5-methoxyphenyl)-N-(3-methoxy-6-methylfuro[2,3-b]pyrazin-2-yl)piperazine-1-carboxamide]: the 50% inhibitory concentration (IC50) (in general, the point on the concentration scale where inhibition reaches its midpoint) in assay [1] is 0.28 µM; in the assay on A549 it was 0.63 µM; in the assay on SK-OV-3, 0.36 µM; in [2], 0.36 µM; in the assay with HEK293 it was 0.35 µM; in [3], 0.44 µM. Also, the IC50 in [4] was found to be 0.44 µM; in the assay with HUVEC it was 0.45 µM; in the assay with HT29, 0.28 µM.
For the compound `COc1cc(F)cc(N2CCN(C(=O)Nc3nc4ccoc4nc3OC)CC2)c1` [Example 3, 4-(3-Fluoro-5-methoxyphenyl)-N-(3-methoxyfuro[2,3-b]pyrazin-2-yl)piperazine-1-carboxamide], the IC50 in assay [1] was 0.71 µM; in the assay with A549 it was 2.11 µM; in the assay on SK-OV-3, 0.85 µM; in [2], 0.24 µM; with HEK293, under 2.5 µM; in [3] it was 0.06 µM. Also, the 50% inhibitory concentration (IC50) in assay [4] is 0.56 µM; in the assay with HUVEC it was under 2.5 µM; in the assay on HT29, 1.53 µM.
With `CCOc1nc2oc(C)cc2nc1NC(=O)N1CCN(c2cc(C)cc(OC)c2)CC1` [Example 32, N-(3-Ethoxy-6-methylfuro[2,3-b]pyrazin-2-yl)-4-(3-methoxy-5-methylphenyl)piperazine-1-carboxamide], the half-maximal inhibitory concentration (IC50) in [1] was 1.63 µM; in the assay on A549 it was 1.39 µM; with SK-OV-3 it was under 2.5 µM; in assay [2], 0.44 µM; in the assay with HEK293, 1.12 µM; in assay [3], 0.52 µM. Also, the concentration for half-maximal inhibition (IC50) in assay [4] is 0.32 µM; in the assay with HUVEC, under 2.5 µM; in the assay on HT29, under 2.5 µM.
Turning to `COc1nc2oc(C)cc2nc1NC(=O)N1CCN(c2cccc(OC(F)(F)F)c2)CC1` [Example 30, N-(3-Methoxy-6-methylfuro[2,3-b]pyrazin-2-yl)-4-(3-(trifluoromethoxy)phenyl)piperazine-1-carboxamide], the IC50 is 1.32 µM in [1]; 0.25 µM in the assay on A549; 1.12 µM in the assay on SK-OV-3; 0.68 µM in assay [2]; 0.58 µM in the assay on HEK293; 0.63 µM in [3]. Further, the 50% inhibitory concentration (IC50) in [4] was determined as 0.54 µM; with HUVEC it was 1.12 µM; in the assay on HT29, 1.12 µM.
In the case of `COc1nc2occc2nc1NC(=O)N1CCN(c2cc(F)cc(C(F)(F)F)c2)CC1` [Example 8, 4-(3-Fluoro-5-(trifluoromethyl)phenyl)-N-(3-methoxyfuro[2,3-b]pyrazin-2-yl)piperazine-1-carboxamide], the 50% inhibitory concentration (IC50) was under 2.5 µM in assay [1]; under 2.5 µM with A549; under 2.5 µM in the assay with SK-OV-3; 0.98 µM in assay [2]; under 2.5 µM in the assay with HEK293; 0.88 µM in [3]. Besides, the values for the IC50 (in assay [4]; with HUVEC; in the assay with HT29) were 1.98 µM, under 2.5 µM and under 2.5 µM, respectively.
On to `CCOc1nc2occc2nc1NC(=O)N1CCN(c2cc(C)cc(C)c2)CC1` [Example 15, 4-(3,5-Dimethylphenyl)-N-(3-ethoxyfuro[2,3-b]pyrazin-2-yl)piperazine-1-carboxamide], for which the half-maximal inhibitory concentration (IC50) in assay [1] is 0.78 µM; with A549, under 2.5 µM; with SK-OV-3, under 2.5 µM; in assay [2] it was 0.24 µM; in the assay with HEK293, under 2.5 µM; in assay [3], 0.25 µM. Besides, the IC50 in assay [4] was 1.12 µM; in the assay with HUVEC, under 2.5 µM; with HT29 it was under 2.5 µM.
Regarding `CCOc1nc2oc(Cl)cc2nc1NC(=O)N1CCN(c2cc(OC)cc(OCCN(C)C)c2)CC1` [Example 54, N-(6-Chloro-3-ethoxyfuro[2,3-b]pyrazin-2-yl)-4-(3-(2-(dimethylamino)ethoxy)-5-methoxyphenyl)piperazine-1-carboxamide], the IC50 in assay [1] is 1.78 µM; with A549, 1.86 µM; with SK-OV-3 it was under 2.5 µM; in assay [2], 1.68 µM; in the assay on HEK293, 1.65 µM; in assay [3], 1.32 µM. Moreover, the IC50 in assay [4] is 1.88 µM; in the assay with HUVEC, 1.75 µM; in the assay on HT29, under 2.5 µM.
As for `CCOc1nc2oc(C)cc2nc1NC(=O)N1CCN(c2cc(F)cc(C(F)(F)F)c2)CC1` [Example 38, N-(3-Ethoxy-6-methylfuro[2,3-b]pyrazin-2-yl)-4-(3-fluoro-5-(trifluoromethyl)phenyl)piperazine-1-carboxamide], the concentration for half-maximal inhibition (IC50) (in [1]; with A549; in the assay on SK-OV-3; in assay [2]; in the assay with HEK293; in [3]) was under 2.5 µM in each case. Further, the IC50 (in [4]; with HUVEC; in the assay on HT29) was under 2.5 µM throughout.
Consider `COc1nc2oc(Cl)cc2nc1NC(=O)N1CCN(c2cc(C(F)(F)F)cc(C(F)(F)F)c2)CC1` [Example 49, 4-(3,5-Bis(trifluoromethyl)phenyl)-N-(6-chloro-3-methoxy-furo[2,3-b]pyrazin-2-yl)piperazine-1-carboxamide], for which the IC50 in assay [1] is 1.17 µM; in the assay on A549 it was under 2.5 µM; in the assay on SK-OV-3, under 2.5 µM; in assay [2], 0.32 µM; in the assay on HEK293, under 2.5 µM; in [3] it was 1.03 µM. The half-inhibitory concentration (IC50) in assay [4] is 1.68 µM; with HUVEC, under 2.5 µM; in the assay on HT29, under 2.5 µM.
On to `CCOc1nc2oc(Cl)cc2nc1NC(=O)N1CCN(c2cc(F)cc(C(F)(F)F)c2)CC1` [Example 58, N-(6-Chloro-3-ethoxyfuro[2,3-b]pyrazin-2-yl)-4-(3-fluoro-5-(trifluoromethyl)phenyl)piperazine-1-carboxamide], for which the IC50 (in assay [1]; with A549; with SK-OV-3; in [2]; with HEK293; in [3]) was under 2.5 µM in each case. In addition, the half-inhibitory concentration (IC50) (in assay [4]; in the assay with HUVEC; in the assay on HT29) was under 2.5 µM in each case.
With `CCOc1nc2oc(C)cc2nc1NC(=O)N1CCN(c2cc(C(F)(F)F)cc(C(F)(F)F)c2)CC1` [Example 39, 4-(3,5-Bis(trifluoromethyl)phenyl)-N-(3-ethoxy-6-methylfuro[2,3-b]pyrazin-2-yl)piperazine-1-carboxamide], the IC50 (in assay [1]; with A549; in the assay with SK-OV-3; in assay [2]; in the assay on HEK293; in assay [3]) was under 2.5 µM in each case. Moreover, the IC50 (in [4]; with HUVEC; in the assay with HT29) was under 2.5 µM in each case.
For the compound `COc1nc2oc(Cl)cc2nc1NC(=O)N1CCN(c2cccc(OC(F)(F)F)c2)CC1` [Example 50, N-(6-Chloro-3-methoxy-furo[2,3-b]pyrazin-2-yl)-4-(3-(trifluoromethoxy)phenyl)piperazine-1-carboxamide], the IC50 (in assay [1]; in the assay with A549; in the assay on SK-OV-3; in assay [2]; in the assay on HEK293; in [3]) was under 2.5 µM throughout. Moreover, the 50% inhibitory concentration (IC50) (in [4]; in the assay on HUVEC; in the assay on HT29) was under 2.5 µM each time.

Values taken from patent US10800788B2, “4-(aryl)-N-(3-alkoxyfuro[2,3-b]pyrazin-2-yl)-piperazine-1-carboxamide derivative and antiproliferative effect thereof” (Dongguk University Industry-Academic Cooperation Foundation, priority 2016, dated 2020).
